Measurements reported in patent publication US12558322B2, “Control method of local release for target compounds by using patterning hydrogel to nanoporous membrane” (KNU-Industry Cooperation Foundation, priority 2018, dated 2026).

Columns and labels:
[1] = test system: YD-10B cells; test: Live/dead assay of YD-10B cells on 5-FU containing HAMA hydrogel arrays; format: cell-based, human; settings: 5 days
Method: (§1) To estimate the rate of apoptosis of tumor cells at a controlled release anticancer drug rate, YD-10B cells derived from human oral squamous cancer were cultured on a 15% (w/v) HAMA hydrogel-arrayed amphipathic membrane. The amphipathic membrane was prepared at a size of 20 mm×20 mm and was fixed at the bottom of the cell culture dish with the use of PDMS blocks as supporters to prevent floating in the culture media. Overall, YD-10B cells (100 μL, cell density of 1.0×10^6 cells/mL) were seeded on the HAMA hydrogel-arrayed amphipathic membrane that contained 5-FU. As a control group, YD-10B cells without 5-FU were seeded on the array. The cells were cultured in culture media [RPMI (RPMI 1640 medium, HEPES)] (Gibco, CA, USA) with 10% fetal bovine serum (FBS) (Gibco) and 1% penicillin/streptomycin (Gibco) in an incubator (MCO-18AIC, Sanyo, Japan) at 5% CO2 and 37.5° C. After 5 days, the live/dead assay [live/dead viability/cytotoxicity kit (Invitrogen, MA, USA)] was conducted to evaluate anticancer performance. The solution for the live/dead assay was mixed with 20 μL of Ethidium Homodimer-1 (EthD-1) and 5 μL of calcein-AM in 10 mL of DPBS in the dark room. The culture media were eliminated using a micropipette, and the residual media were washed twice by DPBS. The staining solution was added on the arrayed amphipathic membrane and incubated for 40 min. The viability of the YD-10B cells on the amphipathic membrane was evaluated by a fluorescent microscope (Zeiss, Germany). The cytoplasm of live cells was stained with calcein-AM (green fluorescence, excitation wavelength: 488 nm/emission wavelength: 515 nm), while the DNA of dead cells was stained with EthD-1 as fluorescence red (excitation: 570 nm/emission: 602 nm). Additionally, the actin filaments of cells were stained to verify the colony formations of tumor cells. For the fixation of cultured cells, the membrane was washed with DPBS and was immersed in 4% paraformaldehyde (PFA) for 15 min. Triton X-100 was used for permeabilization for 5 min at −20° C. on a PFA-immersed membrane. […]

[2] = test system: YD-10B cells; test: Actin filament staining of YD-10B cells (colony formation); format: cell-based, human; settings: 5-FU encapsulated in HAMA hydrogel array, 5 days
Method: as §1, with “The solution for the live/dead assay was mixed with 20 μL of Ethidium Homodimer-1 (EthD-1) and 5 μL of calcein-AM in 10 mL of DPBS in the dark room. The culture media were eliminated using a micropipette, and the residual media were washed twice by DPBS. The staining solution was added on the arrayed amphipathic membrane and incubated for 40 min.” left out, “nm).” for “nm). Additionally, the actin filaments of cells were stained to verify the colony formations of tumor cells. For the fixation of cultured cells, the membrane was washed with DPBS and was immersed in 4% paraformaldehyde (PFA) for 15 min. Triton X-100 was used for permeabilization for 5 min at −20° C. on a PFA-immersed membrane.”

SMILES: O=c1[nH]cc(F)c(=O)[nH]1 [5-FU]
- reduction of adhesion rate (calcein-AM expression area) ([1]; 5-FU encapsulated in HAMA hydrogel array, vs without 5-FU): approximately 48%
- viable cells (live/dead assay) ([1]; HAMA hydrogel arrays containing 5-FU): only a few viable cells were visible
- adhesion area (calcein-AM) ([1]; cultured with 5-FU in HAMA hydrogel array): approximately 19,321 μm^2
- cell growth and colony formation [2]: can inhibit the growth and proliferation of cells
